Assay results reported in the supplement of paper PMC4932681.

Key:
T-47D [1] = experiment: drug sensitivity score (DSS) (DSS (dimensionless)); higher = more sensitive; extreme values may be limits of the assay; settings: 72 h
In short: (§1)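 Breast cancer cell lines and their resistant derivatives were seeded into 384-well plates containing library drugs at five concentrations across a 10 000-fold range, with resistant lines kept in medium with 1 μM of the selecting drug. After 72 h at 37 °C, CellTiter-Glo viability was read on a PHERAstar and normalised to vehicle-only and positive controls. Logistic dose–response fits in the Breeze pipeline gave drug sensitivity score, relative IC50 (curve midpoint) and top-dose inhibition.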

MCF-7 [2] = experiment: as above; settings: 72 h
In short: as §1

BT-474 Tam2 [3] = experiment: as above; settings: 4-OH-tamoxifen in medium 1 µM; 72 h
In short: as §1

ZR-75-1 Tam1 [4] = experiment: as above; settings: 4-OH-tamoxifen in medium 1 µM; 72 h
In short: as §1

ZR-75-1 Tam2 [5] = experiment: as above; settings: 4-OH-tamoxifen in medium 1 µM; 72 h
In short: as §1

MCF-7 Tam1 = experiment: as above; settings: 4-OH-tamoxifen in medium 1 µM; 72 h
In short: as §1

T-47D Tam2 [6] = experiment: as above; settings: 4-OH-tamoxifen in medium 1 µM; 72 h
In short: as §1

T-47D Tam1 [7] = experiment: as above; settings: 4-OH-tamoxifen in medium 1 µM; 72 h
In short: as §1

BT-474 [8] = experiment: as above; settings: 72 h
In short: as §1

ZR-75-1 [9] = experiment: as above; settings: 72 h
In short: as §1

BT-474 Tam1 [10] = experiment: as above; settings: 4-OH-tamoxifen in medium 1 µM; 72 h
In short: as §1

T-47D [11] = experiment: relative IC50 (midpoint of fitted logistic curve, plateau may be below 50% inhibition; CellTiter-Glo viability); higher = less potent; settings: 72 h
In short: as §1

MCF-7 [12] = experiment: as above; settings: 72 h
In short: as §1

BT-474 Tam2 [13] = experiment: as above; settings: 4-OH-tamoxifen in medium 1 µM; 72 h
In short: as §1

ZR-75-1 Tam1 [14] = experiment: as above; settings: 4-OH-tamoxifen in medium 1 µM; 72 h
In short: as §1

ZR-75-1 Tam2 [15] = experiment: as above; settings: 4-OH-tamoxifen in medium 1 µM; 72 h
In short: as §1

T-47D Tam2 [16] = experiment: as above; settings: 4-OH-tamoxifen in medium 1 µM; 72 h
In short: as §1

T-47D Tam1 [17] = experiment: as above; settings: 4-OH-tamoxifen in medium 1 µM; 72 h
In short: as §1

BT-474 [18] = experiment: as above; settings: 72 h
In short: as §1

ZR-75-1 [19] = experiment: as above; settings: 72 h
In short: as §1

BT-474 Tam1 [20] = experiment: as above; settings: 4-OH-tamoxifen in medium 1 µM; 72 h
In short: as §1

| SMILES | drug sensitivity score (T-47D [1]; 4-OH-tamoxifen in medium 0 µM) | drug sensitivity score (T-47D [1]; 4-OH-tamoxifen in medium 1 µM) | drug sensitivity score (MCF-7 [2]; 4-OH-tamoxifen in medium 0 µM) | drug sensitivity score (MCF-7 [2]; 4-OH-tamoxifen in medium 1 µM) | drug sensitivity score (BT-474 Tam2 [3]) | drug sensitivity score (ZR-75-1 Tam1 [4]) | drug sensitivity score (ZR-75-1 Tam2 [5]) | drug sensitivity score (MCF-7 Tam1) | drug sensitivity score (T-47D Tam2 [6]) | drug sensitivity score (T-47D Tam1 [7]) | drug sensitivity score (BT-474 [8]; 4-OH-tamoxifen in medium 0 µM) | drug sensitivity score (BT-474 [8]; 4-OH-tamoxifen in medium 1 µM) | drug sensitivity score (ZR-75-1 [9]; 4-OH-tamoxifen in medium 0 µM) | drug sensitivity score (ZR-75-1 [9]; 4-OH-tamoxifen in medium 1 µM) | drug sensitivity score (BT-474 Tam1 [10]) | relative IC50 (T-47D [11]; 4-OH-tamoxifen in medium 0 µM) [nM] | relative IC50 (MCF-7 [12]; 4-OH-tamoxifen in medium 0 µM) [nM] | relative IC50 (MCF-7 [12]; 4-OH-tamoxifen in medium 1 µM) [nM] | relative IC50 (BT-474 Tam2 [13]) [nM] | relative IC50 (ZR-75-1 Tam1 [14]) [nM] | relative IC50 (ZR-75-1 Tam2 [15]) [nM] | relative IC50 (T-47D Tam2 [16]) [nM] | relative IC50 (T-47D Tam1 [17]) [nM] | relative IC50 (BT-474 [18]; 4-OH-tamoxifen in medium 0 µM) [nM] | relative IC50 (BT-474 [18]; 4-OH-tamoxifen in medium 1 µM) [nM] | relative IC50 (ZR-75-1 [19]; 4-OH-tamoxifen in medium 0 µM) [nM] | relative IC50 (ZR-75-1 [19]; 4-OH-tamoxifen in medium 1 µM) [nM] | relative IC50 (BT-474 Tam1 [20]) [nM] | relative IC50 (T-47D [11]; 4-OH-tamoxifen in medium 1 µM) [nM] |
| --- | --- | --- | --- | --- | --- | --- | --- | --- | --- | --- | --- | --- | --- | --- | --- | --- | --- | --- | --- | --- | --- | --- | --- | --- | --- | --- | --- | --- | --- |
| O=C(Cc1ccc(-c2ccc(OCCN3CCOCC3)cc2)cn1)NCc1ccccc1 [KX2-391] | 2.76 | 4.36 | 11.2 | 10.5 | 19.7 | 3.06 | 4.76 | 0 | 11.3 | 10.6 | 12.3 | 21.8 | 11.5 | 4.21 | 22 | 1600 | 86.8 | 189 | 155 | 2190 | 1110 | 91.9 | 498 | 53.6 | 78 | 53.1 | 779 | 80.2 |  |
| CCCCC(=O)OCC(=O)[C@]1(O)Cc2c(O)c3c(c(O)c2[C@@H](O[C@H]2C[C@H](NC(=O)C(F)(F)F)[C@H](O)[C@H](C)O2)C1)C(=O)c1c(OC)cccc1C3=O [Valrubicin] | 7.72 | 5.96 | 5.32 | 8.1 | 2.37 | 7.34 | 9.1 | 0.994 | 6.34 | 7.66 | 2.57 | 4.06 | 8.2 | 5.85 | 4.26 | 768 | 1450 | 1270 | 4180 | 1280 | 1130 | 1380 | 1100 | 2640 | 3340 | 554 | 1320 | 3120 | 1530 |
| COc1c(C)cnc(Cn2cnc3c(Cl)nc(N)nc32)c1C [BIIB021] | 11.6 | 9.03 | 13.9 | 7.58 | 22 | 5.21 | 5.51 | 2.87 | 8.67 | 9.86 | 14.6 | 22.8 | 4.41 | 4.44 | 22 | 346 | 110 | 409 | 56.9 | 557 | 499 | 284 | 175 | 75.3 | 49 | 477 | 698 | 35.4 | 359 |
